Laboratory results reported in patent US20060089395A1, “Nf-kb activation inhibitors” (priority 2002, published 2006).

System: NF-κ B
Assay: Inhibitory activity of NF-κ B activation, luciferase reporter assay in HepG2 under TNF-α stimulation
Type: cell-based, human
Details: HepG2, TNF-α (40 ng/ml), 4 hours; for inhibition at 1 µg/mL / inhibition at 10 µg/mL: Homo sapiens; for Inhibitory Ratio of NF-κ B Activation(%) Drug Concentration 1 μg/mL / inhibition at 1 µg/mL: 1 μg/mL; for inhibition at 1 µg/mL: read-out: Inhibitory Ratio of NF-κ B Activation(%) Drug Concentration 1 μg/mL; for Inhibitory Ratio of NF-κ B Activation(%) Drug Concentration 10 μg/mL / inhibition at 10 µg/mL: 10 μg/mL; for inhibition at 10 µg/mL: read-out: Inhibitory Ratio of NF-κ B Activation(%) Drug Concentration 10 μg/mL
Method: Using a transfection reagent(Effectene; QIAGEN), the human hepatoma cell strain HepG2 was transfected with a plasmid(pNF κ B-Luc Reporter Plasmid; […]) which is integrated with an oligonucleotide having five tandem copies of NF-κ B binding sequences([…]) on a upstream region of firefly luciferase gene(Luc) according to the QIAGEN's protocol, and the cells were incubated for 6 to 24 hours. After the addition of TNF-α (40 ng/ml) in the presence or absence of a test compound, the cells were incubated for 4 hours, and intracellular luciferase activity was measured by using PicaGene LT (TOYO INK MFG Co., Ltd.) and a chemical luminescence measurement apparatus ([…]luor Plus; TECAN). The inhibitory ratio was measured as a ratio relative to the value of a luciferase activity in the absence of the test compound.

For O=C(Nc1cc(C(F)(F)F)ccc1N1CCOCC1)c1cc(Cl)ccc1O [Compound No. 106], the “Inhibitory Ratio of NF-κ B Activation(%) Drug Concentration 1 μg/mL” value was 92.3% and the “Inhibitory Ratio of NF-κ B Activation(%) Drug Concentration 10 μg/mL” value was 92.1%.
For O=C(Nc1cc(C(F)(F)F)ccc1Br)c1cc(Cl)ccc1O [Compound No. 107], the “Inhibitory Ratio of NF-κ B Activation(%) Drug Concentration 1 μg/mL” value was 94.9% and the “Inhibitory Ratio of NF-κ B Activation(%) Drug Concentration 10 μg/mL” value was 96.2%.
Molecule COC(=O)c1cc(NC(=O)c2cc(Cl)ccc2O)cc(C(F)(F)F)c1 [Compound No. 108, 5-chloro-2-hydroxy-N-[3-methoxycarbonyl-5-(trifluoromethyl)phenyl]benzamide] has an inhibition at 1 µg/mL of 41.5% and an inhibition at 10 µg/mL of 88.4%.
For O=C(Nc1cc(C(F)(F)F)ccc1Oc1ccc2ccccc2c1)c1cc(Cl)ccc1O [Compound No. 110], the “Inhibitory Ratio of NF-κ B Activation(%) Drug Concentration 1 μg/mL” value was 96.5% and the “Inhibitory Ratio of NF-κ B Activation(%) Drug Concentration 10 μg/mL” value was 98.7%.
For O=C(Nc1cc(C(F)(F)F)ccc1Oc1ccc(Cl)cc1Cl)c1cc(Cl)ccc1O [Compound No. 111], the “Inhibitory Ratio of NF-κ B Activation(%) Drug Concentration 1 μg/mL” value was 96.5% and the “Inhibitory Ratio of NF-κ B Activation(%) Drug Concentration 10 μg/mL” value was 99.7%.
With O=C(Nc1cc(C(F)(F)F)ccc1N1CCC(C(F)(F)F)CC1)c1cc(Cl)ccc1O [Compound No. 112] the “Inhibitory Ratio of NF-κ B Activation(%) Drug Concentration 1 μg/mL” value was 96.5% and the “Inhibitory Ratio of NF-κ B Activation(%) Drug Concentration 10 μg/mL” value was 95.7%.
For O=C(Nc1cc(C(F)(F)F)ccc1OCC(F)(F)F)c1cc(Cl)ccc1O [Compound No. 113], the “Inhibitory Ratio of NF-κ B Activation(%) Drug Concentration 1 μg/mL” value was 90.5% and the “Inhibitory Ratio of NF-κ B Activation(%) Drug Concentration 10 μg/mL” value was 96.2%.
For COc1ccccc1Oc1ccc(C(F)(F)F)cc1NC(=O)c1cc(Cl)ccc1O [Compound No. 114], the “Inhibitory Ratio of NF-κ B Activation(%) Drug Concentration 1 μg/mL” value was 91.8% and the “Inhibitory Ratio of NF-κ B Activation(%) Drug Concentration 10 μg/mL” value was 98.2%.
With Cc1cc(Oc2ccc(C(F)(F)F)cc2NC(=O)c2cc(Cl)ccc2O)cc(C)c1Cl [Compound No. 115] the “Inhibitory Ratio of NF-κ B Activation(%) Drug Concentration 1 μg/mL” value was 90.7% and the “Inhibitory Ratio of NF-κ B Activation(%) Drug Concentration 10 μg/mL” value was 98.4%.
O=C(Nc1cc(C(F)(F)F)ccc1N1CCCCC1)c1cc(Cl)ccc1O [Compound No. 116] was tested, and the “Inhibitory Ratio of NF-κ B Activation(%) Drug Concentration 1 μg/mL” value was 90.0% and the “Inhibitory Ratio of NF-κ B Activation(%) Drug Concentration 10 μg/mL” value was 97.3%.
For Cc1ccc(Oc2ccc(C(F)(F)F)cc2NC(=O)c2cc(Cl)ccc2O)cc1 [Compound No. 117], the “Inhibitory Ratio of NF-κ B Activation(%) Drug Concentration 1 μg/mL” value was 92.8% and the “Inhibitory Ratio of NF-κ B Activation(%) Drug Concentration 10 μg/mL” value was 92.6%.
O=C(Nc1cc(C(F)(F)F)ccc1Oc1ccc(Cl)cc1)c1cc(Cl)ccc1O [Compound No. 118] was tested, and the “Inhibitory Ratio of NF-κ B Activation(%) Drug Concentration 1 μg/mL” value was 95.0% and the “Inhibitory Ratio of NF-κ B Activation(%) Drug Concentration 10 μg/mL” value was 99.5%.
O=C(Nc1cc(C(F)(F)F)ccc1Cl)c1cc(Cl)cnc1O [Compound No. 119] was tested, and the “Inhibitory Ratio of NF-κ B Activation(%) Drug Concentration 1 μg/mL” value was 85.4% and the “Inhibitory Ratio of NF-κ B Activation(%) Drug Concentration 10 μg/mL” value was 86.9%.
In the case of CC(=O)Oc1ccccc1C(=O)Nc1cc(Cl)cc(Cl)c1 [Compound No. 121], the “Inhibitory Ratio of NF-κ B Activation(%) Drug Concentration 1 μg/mL” value was 92.9% and the “Inhibitory Ratio of NF-κ B Activation(%) Drug Concentration 10 μg/mL” value was 95.5%.
With O=C(Nc1cc(Cl)ccc1Cl)c1cc(Cl)ccc1O [Compound No. 122] the “Inhibitory Ratio of NF-κ B Activation(%) Drug Concentration 1 μg/mL” value was 95.1% and the “Inhibitory Ratio of NF-κ B Activation(%) Drug Concentration 10 μg/mL” value was 96.9%.
In the case of O=C(Nc1cc(F)cc(F)c1)c1cc(Br)ccc1O [Compound No. 123], the “Inhibitory Ratio of NF-κ B Activation(%) Drug Concentration 1 μg/mL” value was 91.8% and the “Inhibitory Ratio of NF-κ B Activation(%) Drug Concentration 10 μg/mL” value was 96.8%.
In the case of O=C(Nc1cc(Cl)cc(Cl)c1)c1cc(F)ccc1O [Compound No. 124], the “Inhibitory Ratio of NF-κ B Activation(%) Drug Concentration 1 μg/mL” value was 94.2% and the “Inhibitory Ratio of NF-κ B Activation(%) Drug Concentration 10 μg/mL” value was 97.0%.
For O=C(Nc1cc(Cl)cc(Cl)c1)c1cc(Br)ccc1O [Compound No. 126], the “Inhibitory Ratio of NF-κ B Activation(%) Drug Concentration 1 μg/mL” value was 77.1% and the “Inhibitory Ratio of NF-κ B Activation(%) Drug Concentration 10 μg/mL” value was 92.8%.
O=C(Nc1cc(Cl)cc(Cl)c1)c1cc(I)ccc1O [Compound No. 127] was tested, and the “Inhibitory Ratio of NF-κ B Activation(%) Drug Concentration 1 μg/mL” value was 85.4% and the “Inhibitory Ratio of NF-κ B Activation(%) Drug Concentration 10 μg/mL” value was 97.1%.
With O=C(Nc1cc(Cl)cc(Cl)c1)c1cc(Br)cc(Br)c1O [Compound No. 128] the “Inhibitory Ratio of NF-κ B Activation(%) Drug Concentration 1 μg/mL” value was 91.4% and the “Inhibitory Ratio of NF-κ B Activation(%) Drug Concentration 10 μg/mL” value was 95.1%.
With O=C(Nc1cc(Cl)cc(Cl)c1)c1ccc(Cl)cc1O [Compound No. 129] the “Inhibitory Ratio of NF-κ B Activation(%) Drug Concentration 10 μg/mL” value was 71.8%.
O=C(Nc1cc(Cl)cc(Cl)c1)c1cc([N+](=O)[O-])ccc1O [Compound No. 130] was tested, and the “Inhibitory Ratio of NF-κ B Activation(%) Drug Concentration 10 μg/mL” value was 70.6%.
With Cc1ccc(O)c(C(=O)Nc2cc(Cl)cc(Cl)c2)c1 [Compound No. 131] the “Inhibitory Ratio of NF-κ B Activation(%) Drug Concentration 1 μg/mL” value was 49.1% and the “Inhibitory Ratio of NF-κ B Activation(%) Drug Concentration 10 μg/mL” value was 88.7%.
In the case of O=C(Nc1cc([N+](=O)[O-])cc([N+](=O)[O-])c1)c1cc(Br)ccc1O [Compound No. 133], the “Inhibitory Ratio of NF-κ B Activation(%) Drug Concentration 1 μg/mL” value was 91.0% and the “Inhibitory Ratio of NF-κ B Activation(%) Drug Concentration 10 μg/mL” value was 95.6%.
For CC(C)(C)c1ccc(C(C)(C)C)c(NC(=O)c2cc(Cl)ccc2O)c1 [Compound No. 134], the “Inhibitory Ratio of NF-κ B Activation(%) Drug Concentration 1 μg/mL” value was 89.1% and the “Inhibitory Ratio of NF-κ B Activation(%) Drug Concentration 10 μg/mL” value was 96.3%.
COc1ccc(C(C)(C)C)cc1NC(=O)c1cc(Cl)ccc1OC(C)=O [Compound No. 136] was tested, and the “Inhibitory Ratio of NF-κ B Activation(%) Drug Concentration 1 μg/mL” value was 91.0% and the “Inhibitory Ratio of NF-κ B Activation(%) Drug Concentration 10 μg/mL” value was 99.4%.
With Cc1cc(C)cc(NC(=O)c2cc(Br)ccc2O)c1 [Compound No. 137] the “Inhibitory Ratio of NF-κ B Activation(%) Drug Concentration 1 μg/mL” value was 86.3% and the “Inhibitory Ratio of NF-κ B Activation(%) Drug Concentration 10 μg/mL” value was 92.6%.
CC(C)(C)c1cc(NC(=O)c2cc(Cl)ccc2O)cc(C(C)(C)C)c1 [Compound No. 138, N-{3,5-bis[(1,1-dimethyl)ethyl]phenyl}-5-chloro-2-hydroxybenzamide] gave an inhibition at 1 µg/mL of 89.6% and an inhibition at 10 µg/mL of 98.1%.
In the case of CC(=O)Oc1ccc(Cl)cc1C(=O)Nc1cc(C(C)(C)C)cc(C(C)(C)C)c1 [Compound No. 139], the “Inhibitory Ratio of NF-κ B Activation(%) Drug Concentration 1 μg/mL” value was 90.8% and the “Inhibitory Ratio of NF-κ B Activation(%) Drug Concentration 10 μg/mL” value was 94.7%.
In the case of COc1ccc(-c2ccccc2)cc1NC(=O)c1cc(Cl)ccc1O [Compound No. 141], the “Inhibitory Ratio of NF-κ B Activation(%) Drug Concentration 1 μg/mL” value was 82.4% and the “Inhibitory Ratio of NF-κ B Activation(%) Drug Concentration 10 μg/mL” value was 97.9%.
COc1ccc(OC)c(NC(=O)c2cc(Br)ccc2O)c1 [Compound No. 142] was tested, and the “Inhibitory Ratio of NF-κ B Activation(%) Drug Concentration 1 μg/mL” value was 32.4% and the “Inhibitory Ratio of NF-κ B Activation(%) Drug Concentration 10 μg/mL” value was 95.7%.
For COc1cc(NC(=O)c2cc(Br)ccc2O)cc(OC)c1 [Compound No. 143], the “Inhibitory Ratio of NF-κ B Activation(%) Drug Concentration 1 μg/mL” value was 38.3% and the “Inhibitory Ratio of NF-κ B Activation(%) Drug Concentration 10 μg/mL” value was 96.8%.
COC(=O)c1cc(NC(=O)c2cc(Br)ccc2O)cc(C(=O)OC)c1 [Compound No. 144, 5-bromo-2-hydroxy-N-[3,5-bis(methoxycarbonyl)phenyl]benzamide] gave an inhibition at 10 µg/mL of 56.4%.
In the case of CC(C)(C)c1cc(NC(=O)c2cc([N+](=O)[O-])ccc2O)cc(C(C)(C)C)c1 [Compound No. 146], the “Inhibitory Ratio of NF-κ B Activation(%) Drug Concentration 1 μg/mL” value was 91.2% and the “Inhibitory Ratio of NF-κ B Activation(%) Drug Concentration 10 μg/mL” value was 98.5%.
With Cc1ccc(O)c(C(=O)Nc2cc(C(C)(C)C)cc(C(C)(C)C)c2)c1 [Compound No. 147] the “Inhibitory Ratio of NF-κ B Activation(%) Drug Concentration 1 μg/mL” value was 38.9% and the “Inhibitory Ratio of NF-κ B Activation(%) Drug Concentration 10 μg/mL” value was 91.0%.
In the case of COc1ccc(C(C)(C)C)cc1NC(=O)c1cc(C)ccc1O [Compound No. 149], the “Inhibitory Ratio of NF-κ B Activation(%) Drug Concentration 1 μg/mL” value was 37.4% and the “Inhibitory Ratio of NF-κ B Activation(%) Drug Concentration 10 μg/mL” value was 87.1%.
With Cc1ccc(C(C)C)cc1NC(=O)c1cc(Cl)ccc1O [Compound No. 151] the “Inhibitory Ratio of NF-κ B Activation(%) Drug Concentration 1 μg/mL” value was 85.8% and the “Inhibitory Ratio of NF-κ B Activation(%) Drug Concentration 10 μg/mL” value was 98.2%.
In the case of CCOc1ccc(OCC)c(NC(=O)c2cc(Cl)ccc2O)c1 [Compound No. 152], the “Inhibitory Ratio of NF-κ B Activation(%) Drug Concentration 1 μg/mL” value was 35.1% and the “Inhibitory Ratio of NF-κ B Activation(%) Drug Concentration 10 μg/mL” value was 95.3%.
In the case of Cc1ccc(C)c(NC(=O)c2cc(Cl)ccc2O)c1 [Compound No. 153], the “Inhibitory Ratio of NF-κ B Activation(%) Drug Concentration 1 μg/mL” value was 88.3% and the “Inhibitory Ratio of NF-κ B Activation(%) Drug Concentration 10 μg/mL” value was 97.1%.
In the case of N#Cc1ccc(Cl)cc1NC(=O)c1cc(Cl)ccc1O [Compound No. 154], the “Inhibitory Ratio of NF-κ B Activation(%) Drug Concentration 1 μg/mL” value was 83.0% and the “Inhibitory Ratio of NF-κ B Activation(%) Drug Concentration 10 μg/mL” value was 93.3%.
For CCN(CC)S(=O)(=O)c1ccc(OC)c(NC(=O)c2cc(Cl)ccc2O)c1 [Compound No. 155], the “Inhibitory Ratio of NF-κ B Activation(%) Drug Concentration 1 μg/mL” value was 11.2% and the “Inhibitory Ratio of NF-κ B Activation(%) Drug Concentration 10 μg/mL” value was 90.2%.
